# Laboratory results: patent US5604242A, “Heterocyclic chemistry” (Novo Nordisk A/S, priority 1993, dated 1997)
# Structures can show the parent of a compound that is named as a salt.
# Test system: not given
# Experiment: not given
# Conditions: background, in words; cited from earlier work
row,SMILES,ability to cross the blood-brain barrier
1,"O=C(O)C1CCCNC1 (stereo not drawn) [nipecotic acid, 3-piperidinecarboxylic acid]",unable to cross the blood-brain barrier

# Test system: GABA uptake
# Experiment: not given
# Conditions: Yunger et al., J.Pharm.Exp.Ther. 1984, 228, 109; cited from earlier work
row,SMILES,oral activity as inhibitor of GABA uptake
1,"O=C(O)C1CCCN(CCC=C(c2ccccc2)c2ccccc2)C1 (stereo not drawn) [SK&F 89976A, N-(4,4-diphenyl-3-buten-1-yl)nipecotic acid]",orally active inhibitors of GABA uptake
2,"O=C(O)C1=CCCN(CCC=C(c2ccccc2)c2ccccc2)C1 [SK&F 100330A, N-(4,4-diphenyl-3-buten-1-yl)guvacine]",orally active inhibitors of GABA uptake
3,"O=C(O)C1CCCN(CCC=C(c2ccccc2)c2cccs2)C1 (stereo not drawn) [SK&F 100604J, N-(4-phenyl-4-(2-thienyl)-3-buten-1-yl)nipecotic acid]",orally active inhibitors of GABA uptake
4,"O=C(O)CC1CCN(CCC=C(c2ccccc2)c2ccccc2)C1 (stereo not drawn) [SK&F 100561, N-(4,4-diphenyl-3-buten-1-yl)-homo-β-proline]",orally active inhibitors of GABA uptake

# Same assay, conditions: background, in words; cited from earlier work
row,SMILES,inhibition of GABA uptake from the synaptic cleft into presynaptic nerve terminals and glial cells
1,"O=C(O)C1CCCNC1 (stereo not drawn) [nipecotic acid, 3-piperidinecarboxylic acid]",well-known and potent inhibitor of GABA uptake

# Test system: [^3 H]-GABA uptake
# Experiment: in vitro inhibition of [3H]-GABA uptake (method of Fjalland), rat cortical tissue homogenate
# Assay type: biochemical, Male wistar rat
# Conditions: 40 mM tris HCl buffer pH 7.5, 60 minutes at 30° C.
# Method: Values for in vitro inhibition of [^3 H]-GABA uptake for the invention compounds were assessed essentially by the method of Fjalland (Acta Pharmacol. Toxicol. 1978, 42, 73-76). Male wistar rat cortical tissue was gently homogenized by hand using a glass/PTFE homogenizer in 10 volumes of 0.32M sucrose. Incubation was performed in a 40 mM tris HCl buffer (pH 7.5 at 30° C.) containing […], 4 mM MgSO4, […] and 10 mM glucose, for 60 minutes at 30° C. Values for inhibition of GABA uptake for some representative compounds are recorded in Table I.
row,SMILES,IC50 [nM]
1,"O=C(O)[C@@H]1CCCN(CCOCc2ccc3ccccc3c2-c2ccccc2)C1 [Example 3, (R)-1-(2-((1-Phenyl-2-naphthyl)methoxy)ethyl)-3-piperidinecarboxylic acid hydrochloride]",6400
2,"O=C(O)[C@@H]1CCCN(CCOCc2ccccc2Cc2ccccc2)C1 [Example 2, (R)-1-(2-(2-Benzylbenzyloxy)ethyl)-3-piperidinecarboxylic acid hydrochloride]",325
3,"O=C(O)C1CCCN(CCOCCCc2ccccc2)C1 (stereo not drawn) [Example 1, 1-(2-(3-Phenyl-1-propyloxy)ethyl)-3-piperidinecarboxylic acid hydrochloride]",4500
4,"O=C(O)[C@@H]1CCCN(CCOC/C(=C/c2ccccc2)c2ccccc2)C1 [Example 5, E-(R)-1-(2-((2,3-Diphenyl-2-propen-1-yl)oxy)ethyl)-3-piperidinecarboxylic acid hydrochloride]",495
5,"O=C(O)[C@@H]1CCCN(CCOCc2ccccc2-c2ccccc2)C1 [Example 4, (R)-1-(2-(2-Phenylbenzyloxy)ethyl)-3-piperidinecarboxylic acid hydrochloride]",338
6,"O=C(O)[C@@H]1CCCN(CCOC/C(=C\c2ccccc2)c2ccccc2)C1 [Example 6, Z-(R)-1-(2-((2,3-Diphenyl-2-propen-1-yl)oxy)ethyl)-3-piperidinecarboxylic acid hydrochloride]",2000
